Results on 27 compounds are retold here after US20200157092A1, “[1,2,4]-TRIAZOLO [1,5-A]-PYRIMIDINYL DERIVATIVES SUBSTITUTED WITH PIPERIDINE, […] […] OGA INHIBITORS” (priority 2017, published 2020).

pEC50: −log10 of the molar value. Like-named read-outs stand apart in the source and are kept apart here.

Test [1] deals with T1, recombinant human Meningioma Expressed Antigen 5 (MGEA5), also referred to as O-GlcNAcase (OGA) (Homo sapiens, UniProt O60502).
T1 construct: Full length OGA enzyme was purchased at OriGene (cat # TP322411); purchased OriGene TP322411
T1 sequence (O60502 1-916): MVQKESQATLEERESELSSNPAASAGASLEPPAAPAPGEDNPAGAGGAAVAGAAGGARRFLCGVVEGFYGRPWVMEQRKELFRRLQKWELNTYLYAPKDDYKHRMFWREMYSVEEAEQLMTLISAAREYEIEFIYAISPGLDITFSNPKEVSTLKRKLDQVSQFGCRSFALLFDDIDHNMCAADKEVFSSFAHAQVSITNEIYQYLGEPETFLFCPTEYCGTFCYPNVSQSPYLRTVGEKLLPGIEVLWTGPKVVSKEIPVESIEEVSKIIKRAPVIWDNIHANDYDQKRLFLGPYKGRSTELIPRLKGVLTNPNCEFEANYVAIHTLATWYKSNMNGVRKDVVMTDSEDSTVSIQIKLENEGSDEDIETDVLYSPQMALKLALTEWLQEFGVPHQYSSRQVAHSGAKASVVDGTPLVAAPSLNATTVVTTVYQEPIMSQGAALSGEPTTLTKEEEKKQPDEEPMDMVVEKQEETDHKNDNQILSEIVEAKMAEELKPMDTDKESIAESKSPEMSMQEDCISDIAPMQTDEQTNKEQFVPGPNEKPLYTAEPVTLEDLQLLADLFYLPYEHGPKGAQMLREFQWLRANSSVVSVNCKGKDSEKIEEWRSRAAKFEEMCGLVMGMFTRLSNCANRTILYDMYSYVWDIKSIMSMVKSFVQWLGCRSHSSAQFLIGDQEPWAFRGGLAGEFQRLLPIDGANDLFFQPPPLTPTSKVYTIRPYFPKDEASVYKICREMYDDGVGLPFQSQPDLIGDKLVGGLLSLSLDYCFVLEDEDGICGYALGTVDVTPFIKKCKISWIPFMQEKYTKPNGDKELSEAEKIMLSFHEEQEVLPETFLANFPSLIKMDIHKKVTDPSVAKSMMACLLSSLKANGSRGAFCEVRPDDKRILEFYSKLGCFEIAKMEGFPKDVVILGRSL
The test can be described thus: OGA biochemical assay: inhibition of FM-GlcNAc hydrolysis, fluorescence; protocol A (10 nM OGA, 1 h) or protocol B (2 nM OGA, 6 h). Particulars: for IC50: read-out: Enzymatic hOGA, pIC50 (converted). The method, then: The hydrolysis FM-GlcNAc (Marker Gene technologies, cat # M1485) results in the formation of ß-D-N-glucosamineacetate and fluorescein. The fluorescence of the latter can be measured at excitation wavelength 485 nm and emission wavelength 538 nm. An increase in enzyme activity results in an increase in fluorescence signal. Full length OGA enzyme was purchased at OriGene (cat # TP322411). The enzyme was stored in 25 mM Tris.HCl, pH 7.3, 100 mM glycine, 10% glycerol at −20° C. […] The assay was performed in 200 mM Citrate/phosphate buffer supplemented with 0.005% Tween-20. 35.6 g Na2HPO4 2 H2O (Sigma, # C0759) were dissolved in 1 L water to obtain a 200 mM solution. […] The buffer to stop the reaction consists of a 500 mM Carbonate buffer, pH 11.0. […] OGA was used at a 10 nM (protocol A) or 2 nM (protocol B) concentration and FM-GlcNAc at a 100 uM final concentration. Dilutions were prepared in assay buffer.
Plates were pre-incubated for 60 min at room temperature and then 2 μl FM-GlcNAc substrate mix added. […] Plates were briefly centrifuged for 1 min at 1000 rpm and incubate at room temperature for 1 h (10 nM OGA, protocol A) or 6 h (2 nM OGA, protocol B). To stop the reaction 5 μl STOP buffer were added and plates centrifuge again 1 min at 1000 rpm. Fluorescence was quantified in the Thermo Scientific Fluoroskan Ascent or the PerkinElmer EnVision with excitation wavelength 485 nm and emission wavelength 538 nm.
For analysis a best-fit curve is fitted by a minimum sum of squares method. From this an IC50 value and Hill coefficient was obtained. High control (no inhibitor) and low control (saturating concentrations of standard inhibitor) were used to define the minimum and maximum values.

Test [2] concerns the target T2, OGA (Homo sapiens, UniProt O60502).
T2 construct: HEK293 cells inducible for P301L mutant human Tau (isoform 2N4R) were established at Janssen; endogenous in cells; host or cells: HEK293 cells inducible for P301L mutant human Tau (2N4R)
T2 sequence (O60502 1-916): T1 sequence (O60502 1-916)
The test can be described thus: OGA cellular assay: immunocytochemical detection of O-GlcNAcylated proteins in HEK293 cells inducible for P301L mutant human Tau. It is filed as cell-based. Particulars: for Emax: HEK293, read-out: Cellular Emax (%); for Cellular hOGA; pEC50 / Cellular Emax (%): HEK293 cells inducible for P301L mutant human Tau, 6 hours incubation; for Cellular Emax (%): maximum = Thiamet G 200 uM. The source says: HEK293 cells inducible for P301L mutant human Tau (isoform 2N4R) were established at Janssen. Thiamet-G was used for both plate validation (high control) and as reference compound (reference EC50 assay validation). […] Inhibition of OGA will result in an increase of O-GlcNAcylated protein levels resulting in an increased signal in the experiment. […] ICC pictures are imaged with a Perkin Elmer Opera Phenix plate microscope and quantified with the provided software Perkin Elmer Harmony 4.1.
Cells were propagated in DMEM high Glucose (Sigma, # D5796) following standard procedures. […] At the day of compound test medium from assay plates was removed and replenished with 90 μl of fresh Assay Medium. 10 μl of compounds at a 10 fold final concentration were added to the wells. Plates were centrifuged shortly before incubation in the cell incubator for 6 hours. DMSO concentration was set to 0.2%. Medium is discarded by applying vacuum. For staining of cells medium was removed and cells washed once with 100 μl D-PBS (Sigma, # D8537). From next step onwards unless other stated assay volume was always 50 μl and incubation was performed without agitation and at room temperature. […] Before analysis samples were washed 2 times manually for 5 minutes in ICC base buffer.
Imaging is performed using Perkin Elmer Phenix Opera using a water 20× objective and recording 9 fields per well. Intensity readout at 488 nm is used as a measure of O-GlcNAcylation level of total proteins in wells. To assess potential toxicity of compounds nuclei were counted using the Hoechst staining. IC50-values are calculated using parametric non-linear regression model fitting. As a maximum inhibition Thiamet G at a 200 uM concentration is present on each plate. In addition, a concentration response of Thiamet G is calculated on each plate.

Setting [3] is: Enzymatic protocol B (2 nM OGA, 6 h).
Setting [4] is: Enzymatic protocol A (10 nM OGA, 1 h).

As to `CC(=O)Nc1ncc(CN2C[C@@H](c3cc(C)nc4ncnn34)C[C@@H](C(F)(F)F)C2)s1` (mixture of isomers) [Product 84], in test [1] (setting [3]), the Emax (as a rule, the size of the effect at its maximum, as opposed to the concentration needed) amounted to 88.5% and the IC50 is 1480 nM.

In the case of `CC(=O)Nc1ncc(S(=O)(=O)N2CCCC(c3ccnc4nccn34)C2)s1` (racemic) [Product 2], in test [1] (setting [4]), the maximal effect (Emax) is 98.4% and the IC50 is 186 nM.

Consider `CC(=O)Nc1ncc(S(=O)(=O)N2CCCC(c3cc(C)nc4ncnn34)C2)s1` (racemic) [Product 3], for which, in test [1] (setting [4]), the Emax came to 96% and the IC50 is 32.4 nM.

Regarding `CC(=O)Nc1ncc(S(=O)(=O)N2CCCC(c3cc(C(F)F)nc4nccn34)C2)s1` (racemic) [Product 5], in test [1] (setting [4]), the Emax was found to be 99.4% and the IC50 was 67.6 nM.

Turning to `CC(=O)Nc1ncc(S(=O)(=O)N2CCC(c3cc(C)nc4ncnn34)C2)s1` (racemic) [Product 8], in test [1] (setting [4]), the Emax turned out to be 89% and the IC50 is 1550 nM.

In the case of `CC(=O)Nc1ncc(CN2CCCC(c3ccnc4nccn34)C2)s1` (racemic) [Product 10], in test [2], the negative logarithm of the EC50 (pEC50) – broadly, −log10 of the EC50, conventionally taken in molar units – is 6.68 and the maximal response (Emax) amounted to 99%. Moreover, in test [1] (setting [3]), the maximum response (Emax) worked out at 100% and the IC50 is 35.5 nM.

For the compound `CC(=O)Nc1ncc(CN2CCCC(c3cccc4nccn34)C2)s1` (racemic) [Product 12], in test [2], the pEC50 is 7.68 and the Emax was 103%. In test [1] (setting [3]), the Emax stood at 105% and the IC50 is 10.7 nM.

Turning to `CC(=O)Nc1ncc(CN2CCCC(c3ccnc4cc[nH]c34)C2)s1` (racemic) [Product 15], in test [2], the negative-log EC50 (pEC50) was 7.91 and the Emax came to 95.2%. Also, in test [1] (setting [3]), the Emax turned out to be 97.8% and the IC50 was 37.2 nM.

Take `CC(=O)Nc1ncc(CN2CCCC(c3cnc4cc[nH]c4c3)C2)s1` (racemic) [Product 26]: in test [2], the pEC50 is 7.62 and the Emax was 99%. Further, in test [1] (setting [3]), the maximum response (Emax) turned out to be 123% and the IC50 is 40.7 nM.

As for `CC(=O)Nc1ncc(CN2CCC[C@H](c3ccnc4ccn(C)c34)C2)s1` (single isomer, unassigned) [Product 71], in test [2], the negative-log EC50 (pEC50) is 7.06 and the Emax was 79.2%. In test [1] (setting [3]), the maximal response (Emax) worked out at 100% and the IC50 is 12.6 nM.

Take `CC(=O)Nc1ncc(CN2CCC[C@H](c3cc4cc[nH]c4nc3C)C2)s1` (single isomer, unassigned) [Product 75]: in test [2], the “Cellular hOGA; pEC50” value is 7.90 and the “Cellular Emax (%)” value is given as 119.60%. In addition, in test [1] (setting [3]), the “Enzymatic Emax (%)” value was found to be 100.81% and the “Enzymatic hOGA; pIC50” value is 8.57.

As for `CC(=O)Nc1ncc(CN2CCC[C@@H](c3cnc4ccn(C)c4c3)C2)s1` (single isomer, unassigned) [Product 79], in test [2], the “Cellular hOGA; pEC50” value was 7.87 and the “Cellular Emax (%)” value came to 101.35%. For the same compound, in test [1] (setting [3]), the “Enzymatic Emax (%)” value is listed as 102.15% and the “Enzymatic hOGA; pIC50” value came out at 8.14.

Turning to `CC(=O)Nc1ncc(CN2CCC[C@H](c3cnc4cc[nH]c4c3)C2)s1` (single isomer, unassigned) [Product 80], in test [2], the “Cellular hOGA; pEC50” value is recorded as 7.72 and the “Cellular Emax (%)” value came to 109.88%. In addition, in test [1] (setting [3]), the “Enzymatic Emax (%)” value is on record as 99.58% and the “Enzymatic hOGA; pIC50” value is listed as 7.69.

With `CC(=O)Nc1ncc(S(=O)(=O)N2CCC[C@@H](c3ccnc4ncnn34)C2)s1` [Product 1], in test [1] (setting [4]), the Emax worked out at 94.2% and the IC50 was 871 nM.

For the compound `CC(=O)Nc1ncc(S(=O)(=O)N2CCC[C@H](c3ccnc4ncnn34)C2)s1` [Product 4], in test [1] (setting [4]), the maximal response (Emax) was 107% and the IC50 was 30.9 nM.

As for `CC(=O)Nc1ncc(CN2CC[C@H](C)[C@@H](c3cc(C(F)F)nc4ncnn34)C2)s1` [Product 16], the maximal effect (Emax) stood at 92.5% in test [1] (setting [4]) and 94.5% in test [1] (setting [3]). Further, the figures for the IC50 in test [1] (setting [4]) and in test [1] (setting [3]) were 1820 nM and 955 nM, respectively.

With `CC(=O)Nc1ncc(CN2CCCC(c3cc(C)nc4nccn34)C2)s1` (stereo not shown) [Product 17], in test [2], the pEC50 was 7.26 and the Emax was determined as 106%. In test [1] (setting [3]), the Emax was found to be 101% and the IC50 is 8.51 nM.

Regarding `CC(=O)Nc1ncc(CN2CCC(c3cc(C)nc4ncnn34)C2)s1` (stereo not shown) [Product 18], in test [1] (setting [3]), the Emax turned out to be 97.3% and the IC50 is 295 nM.

On to `CC(=O)Nc1ncc(CN2CCC(c3c(F)c(C)nc4ncnn34)C2)s1` (stereo not shown) [Product 19], for which, in test [1] (setting [3]), the maximal effect (Emax) amounted to 97.2% and the IC50 was 204 nM.

Consider `CC(=O)Nc1ncc(CN2CCC(c3cc(C)nc4ccnn34)C2)s1` (stereo not shown) [Product 21], for which, in test [1] (setting [3]), the maximal effect (Emax) amounted to 98.3% and the IC50 is 407 nM.

Take `CC(=O)Nc1ncc(CN2CCCC(Cc3cc(C)nc4ccnn34)C2)s1` (stereo not shown) [Product 44]: in test [2], the pEC50 was 7.45 and the maximum response (Emax) worked out at 129%. Moreover, in test [1] (setting [3]), the Emax is 101% and the IC50 is 3.8 nM.

Regarding `Cc1cc(C2CN(C(C)c3ccc4c(c3)OCO4)CCO2)n2ncnc2n1` (stereo not shown) [Product 53], in test [1] (setting [3]), the maximum response (Emax) turned out to be 64.6% and the IC50 was 6460 nM.

On to `CC(c1ccc2c(c1)OCO2)N1CCOC(c2cc(C(F)(F)F)nc3ncnn23)C1` (stereo not shown) [Product 54], for which, in test [1] (setting [3]), the Emax came out at 25.1% and the IC50 was above 10000 nM.

Regarding `CC(=O)Nc1ncc(CN2CCCC(C)(c3cc(C(F)F)nc4ncnn34)C2)s1` (stereo not shown) [Product 61], in test [1] (setting [3]), the maximum response (Emax) turned out to be 27.4% and the IC50 is above 10000 nM.

Regarding `CC(c1ccc2c(c1)OCO2)N1CCC(Cc2cccc3nccn23)C1` (stereo not shown) [Product 67], in test [1] (setting [3]), the maximum response (Emax) worked out at 95.7% and the IC50 was 102 nM.

As for `CC(=O)Nc1ncc(CN2CCCC(c3cc4c(ccn4C)nc3C)C2)s1` (stereo not shown) [Product 105], in test [1] (setting [3]), the Emax is 102% and the IC50 is 7.41 nM.

As for `CC(=O)Nc1ncc(S(=O)(=O)N2CCCCC(c3ccnc4ncnn34)C2)s1` (stereo not shown) [Product 109], in test [1] (setting [4]), the Emax is 95.4% and the IC50 was 437 nM.
